Patent publication US10703748B2, “Diazanaphthalen-3-yl carboxamides and preparation and use thereof” (Samumed, LLC, priority 2017, dated 2020)

What was measured:
[1] = biological target: DYRK1A kinase (Homo sapiens, UniProt Q13627); test: DYRK1A kinase activity (Ser/Thr 18 peptide Z-lyte FRET assay); format: biochemical; conditions: recombinant DYRK1A, 30 μM ATP, one hour at room temperature;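 note: kinase activity read as coumarin/fluorescein emission ratio after development step, with unphosphorylated and phosphorylated peptide forms setting 0% and 100% controls, values from dose-response curves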
Protocol: Representative compounds were screened using the assay procedure for DYRK1A kinase activity as described below.
Each compound was dissolved in DMSO as a 10 mM stock and used to prepare compound source plates.
This is a non-radioactive assay using fluorescence resonance energy transfer (FRET) between coumarin and fluorescein to detect kinase activity which is represented as a ratio of coumarin emission/fluorescein emission.
The mixture was allowed to incubate with the representative compounds for one hour at room temperature. All reactions were performed in duplicate. Unphosphorylated (“0% Control”) and phosphorylated (“100% control”) forms of Ser/Thr 18 served as control reactions. Additionally, an 11-point dose-response curve of Staurosporine (1 uM top) was run to serve as a positive compound control.
After incubation, Development Reagent A was diluted in Development Buffer then added to the reaction and allowed to further incubate for one hour at room temperature.
Dose-response curves were generated and inhibitory concentration (IC50) values were calculated using non-linear regression curve fit in the Dotmatics' Studies Software (Bishops Stortford, UK).

[2] = biological target: GSK3β kinase (Homo sapiens, UniProt P49841); test: GSK3β kinase activity (Ser/Thr 09 peptide Z-lyte FRET assay); format: biochemical; conditions: recombinant kinase, 46 μM ATP, one hour at room temperature; read-out: EC50
GSK3β kinase, sequence (P49841 whole entry): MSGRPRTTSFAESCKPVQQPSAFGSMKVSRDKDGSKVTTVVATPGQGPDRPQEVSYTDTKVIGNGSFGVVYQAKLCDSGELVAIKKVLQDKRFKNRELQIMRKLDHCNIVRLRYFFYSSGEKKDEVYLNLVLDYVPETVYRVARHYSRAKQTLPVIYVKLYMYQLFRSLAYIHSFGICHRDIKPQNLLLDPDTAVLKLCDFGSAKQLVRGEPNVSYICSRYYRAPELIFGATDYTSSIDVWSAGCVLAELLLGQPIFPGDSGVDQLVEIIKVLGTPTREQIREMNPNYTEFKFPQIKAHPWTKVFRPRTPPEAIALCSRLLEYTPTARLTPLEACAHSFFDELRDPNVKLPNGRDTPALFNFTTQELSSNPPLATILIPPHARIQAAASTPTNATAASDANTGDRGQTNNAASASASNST

[3] = tested on: Tau phosphorylation at Ser396 (pSer396); test: Tau phosphorylation at Ser396 (pSer396) in SH-SY5Y cells, ELISA / western blot; format: cell-based, human; conditions: Homo sapiens; SH-SY5Y cells, overnight (16-18 h); read-out: pSer396 Tau EC50;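 note: decrease in pSer396 Tau measured in lysates of treated cells by colorimetric ELISA or chemiluminescent western blot, same pSer396 antibody for both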
Protocol: Two days before treatment, cells were seeded onto 96 well plates at 5×10^4 cells/well.
The above synthesized compounds were screened using the cell assay procedure to assess decrease Tau phosphorylation at Ser396 (pSer396) described below.
Cells were lysed with RIPA buffer complemented with phosphatase and protease inhibitors then lysates were spun down at 12,000 g for 10 min to remove any cellular debris.

[4] = tested on: Tau phosphorylation at Threonine 212 (pT212Tau); test: Tau phosphorylation at Threonine 212 (pT212Tau) in Dyrk1a- and MAPT-overexpressing HEK293T cells, sandwich ELISA; format: cell-based; conditions: Homo sapiens, HEK-293T, overnight (16-18 hours), read-out: Thr212 EC50
Protocol: HEK293T cells (transfectable human embryonic kidney cells) were cultured in DMEM medium supplemented with 10% FBS and 1% penicillin/streptomycin.
HEK293T cells were transiently transfected to overexpress Dyrk1a and microtubule-associated protein Tau (MAPT) genes. Specifically, Dyrk1a and MAPT expression vectors were obtained from OriGene (10 μg of each, catalog numbers SC314641 and RC216166, respectively). A MaxiPrep for each vector was ordered and received from GeneWiz, yielding 874.5 μg (resuspended at […]) of the Dyrk1a expression vector, and 898 μg (resuspended at […]) of MAPT.
HEK293T cells were seeded at 1.0×10^7 cells in 10 mL per T-75 flask. […] One T-75 flask was designated as a no-vector negative control for pT212Tau signal.
After 4-6 hours of incubation in transfection reagents, transiently double transfected HEK293T cells were dissociated by treatment with trypsin EDTA and seeded at 1.0×10^5 cells in 100 μL per well in 96-well plates. No-vector negative controls were seeded in separate 96-well plates to avoid the risk of the negative control cells picking up the overexpression during incubation. At the time of seeding, DMSO-resuspended Samumed compounds were dispensed to eight wells as a serial dilution from 10 μM to 4.6 nM final concentration in medium, or at 0.12 μM to 0.05 nM with particularly potent compounds. Cells were exposed to the representative compounds overnight (16-18 hours) in a 37° C. incubator.
96-Well flat-bottom plates were coated with 100 μL per well anti-HT7 capture antibody (ThermoFisher, MN1000) diluted 1:300 in 1×PBS at 4° C. overnight, with shaking at 500 rpm. After overnight capture antibody incubation, coated plates were washed four times with 200 μL per well of 1×PBS-0.05% Tween-20, and blocked for 1 hour with 200 μL per well of 1×PBS with 2% BSA. After 1 hour of blocking, plates were washed four times with 200 μL per well of 1×PBS-0.05% Tween-20, prior to sample loading.
Wells of compound-treated cells were visually checked for cell death before being washed with 200 μL per well of 1×DPBS supplemented with phosphatase inhibitor diluted to 1×. Cells were then lysed with 100 μL 1×RIPA buffer supplemented with phosphatase and protease inhibitors (each diluted to a final 1×). Cells were shaken at 500 rpm, 4° C. for 20 minutes prior to further lysis (via manual scraping) and transfer to 96-well V-bottom collection plates (Corning, 3894). V-bottom plates were centrifuged at 4000 rpm, 4° C., for 15 minutes, and 100 μL of lysate supernatant from each well was directly tested for pT212Tau signal by sandwich ELISA.
Specifically, lysates were directly transferred to the coated and blocked ELISA plates for 2 hours before plates were washed four times with 200 μL per well of 1×PBS-0.05% Tween-20 and probed with 100 μL per well of anti-pT212Tau antibody (ThermoFisher, 44-740G) diluted 1:200 in 1×PBS for 2 hours. Plates were washed four times with 200 μL per well of 1×PBS-0.05% Tween-20 and probed with 100 μL per well of anti-rabbit/HRP conjugate (Cell Signaling Technology, 7074S) diluted 1:600 in 1×PBS for 1 hour. Plates were washed four times with 200 μL per well of 1×PBS-0.05% Tween-20 before 100 μL per well of TMB substrate solution (ThermoFisher, N301) was added. When colour development was observed, 100 μL per well of stop solution (ThermoFisher, N600) was added, and colorimetric detection of pT212Tau signal was read at 450 nm with the Cytation 3 Cell Imaging Multi-Mode Reader (BioTek). The signal was used to plot, draw the curves fitting, and determine the EC50 values in GraphPad Prism for tested representative compounds.

[5] = tested on: secreted cytokines TNFα, IL-6 and KC-GRO; test: Secreted cytokines in Lipopolysaccharide-stimulated BV-2 cells (Table 9 does not say which cytokine); format: cell-based, mouse; conditions: Mus musculus, BV-2, 5 h; read-out: EC50
[6] = tested on: SW480 colon carcinoma cells; test: Cell viability assay (CellTiter-Glo); conditions: Homo sapiens; for EC50: SW480, 96 h; for inhibition at 10 µM: SW480, read-out: percent inhibition at 10 μM
Protocol: Representative compounds were screened using the assay procedure to assess the effect on cell viability as described below.
SW480 colon carcinoma cells were transduced with a lentiviral vector expressing luciferase with a human Sp5 promoter consisting of a sequence of eight TCF/LEF binding sites. […] These stably transduced SW480 cells were expanded in cell culture and used for all further screening activities. Each compound was dissolved in DMSO as a 10 mM stock and used to prepare compound source plates.
For the Cell Viability Assays, the cells were plated at 2,000 cells/well in 384-well plates with a DMEM medium containing 1% fetal bovine serum, and 1% Penicillin-Streptomycin and incubated for four days hours at 37° C. and 5% CO2. Eight replicates of DMSO-treated cells served as controls and cells treated with compound were performed in duplicate.
After incubation, 10 μL of CellTiter-Glo (Promega) was added to each well allowed to incubate for approximately 12 minutes. This reagent “results in cell lysis and generation of a luminescent signal proportional to the amount of ATP present. The amount of ATP is directly proportional to the number of cells present in culture, in agreement with previous reports. The CellTiter-Glo Assay generates a “glow-type” luminescent signal, produced by the luciferase reaction (Promega.com)”.
Dose-response curves were generated and EC50 concentration values were calculated using non-linear regression curve fit in the GraphPad Prism (San Diego, Calif.) or Dotmatics' Studies Software (Bishops Stortford, UK).

[7] = tested on: Wnt-responsive Sp5-Luc reporter in SW480 colon carcinoma cells; test: Screening assay for Wnt activity (Sp5-Luc reporter gene assay); conditions: Homo sapiens; for EC50: SW480; for inhibition at 10 µM: SW480, read-out: percent inhibition at 10 μM
[8] = tested on: IL-6; test: IL-6 inhibition in LPS-stimulated human peripheral blood mononuclear cells (HTRF); conditions: Homo sapiens, PBMC; for EC50: 22 h; for inhibition at 10 µM: read-out: percentage in parentheses after EC50 >10
[9] = tested on: α-smooth muscle actin (aSMA) positive LL29 cells; test: Inhibition of the fibrotic process: αSMA staining in TGF-β1 treated LL29 fibroblasts from IPF patients; conditions: Homo sapiens, Fibroblast; for EC50: 96 h; for inhibition at 10 µM: read-out: percentage in parentheses after EC50 >10

Structure (SMILES) | EC50 [1] [µM] | EC50 [2] [µM] | EC50 [3] [µM] | EC50 [4] [µM] | EC50 [5] [µM] | EC50 [6] [µM] | EC50 [7] [µM] | EC50 [8] [µM] | inhibition at 10 µM [6] [%] | inhibition at 10 µM [8] [%] | EC50 [9] [µM] | inhibition at 10 µM [7] [%] | inhibition at 10 µM [9] [%]
Cc1nnc(-c2ccc3cnc(NC(=O)CN4C5CCC4CC5)nc3c2)s1 [Compound 1632, 2-(7-Azabicyclo[2.2.1]heptan-7-yl)-N-(7-(5-methyl-1,3,4-thiadiazol-2-yl)quinazolin-2-yl)acetamide] | 0.5 | 0.943 | – | 0.402 | – | > 10 | > 10 | > 10 | 21.3 | 4.2 | > 10 | 19.2 | 28.8
Cn1cc(-c2ccc3nnc(NC(=O)C4CC4)cc3c2)cn1 [Compound 1815, N-(6-(1-Methyl-1H-pyrazol-4-yl)cinnolin-3-yl)cyclopropanecarboxamide] | > 10 | > 10 | > 10 | > 10 | – | > 10 | > 10 | > 10 | 15.8 | 7 | > 10 | 12.9 | 33.5
CN1CCN(c2cccc(C(=O)Nc3cc4cc(-c5cnn(C)c5)ccc4nn3)c2)CC1 [Compound 1953, N-(6-(1-Methyl-1H-pyrazol-4-yl)cinnolin-3-yl)-3-(4-methylpiperazin-1-yl) benzamide] | 0.317 | 2.62 | > 10 | > 10 | 2.9 | > 10 | > 10 | > 10 | 7.8 | 12.8 | > 10 | 9.7 | 55.5
Cn1cc(-c2cnc3cnc(NC(=O)c4ccc(OC5CCNCC5)cc4)cc3c2)cn1 [Compound 2864, N-(3-(1-Methyl-1H-pyrazol-4-yl)-1,7-naphthyridin-6-yl)-4-(piperidin-4-yloxy)benzamide] | 0.039 | > 10 | > 10 | 0.31 | – | 4.06 | > 10 | > 10 | – | 10 | > 10 | 47.3 | 7.3
Cn1cc(-c2cnc3cnc(NC(=O)c4ccnc(N5CCNCC5)c4)cc3c2)cn1 [Compound 2866, N-(3-(1-Methyl-1H-pyrazol-4-yl)-1,7-naphthyridin-6-yl)-2-(piperazin-1-yl) isonicotinamide] | 0.041 | > 10 | > 10 | 1.6 | – | 2.48 | 2.2 | > 10 | – | 0 | > 10 | – | 47.4
Cn1cc(-c2cnc3cnc(NC(=O)c4ccnc(N5CCNCC5)c4)cc3c2)nn1 [Compound 3105, N-(3-(1-Methyl-1H-1,2,3-triazol-4-yl)-1,7-naphthyridin-6-yl)-2-(piperazin-1-yl)isonicotinamide] | 0.147 | > 10 | > 10 | 7.8 | – | 9.75 | 4.16 | > 10 | – | 8 | > 10 | – | 21.8

Further lines, with some results ahead:

EC50 [1] [µM] | EC50 [2] [µM] | EC50 [3] [µM] | EC50 [4] [µM] | EC50 [5] [µM] | EC50 [6] [µM] | EC50 [7] [µM] | EC50 [8] [µM] | Structure (SMILES) | inhibition at 10 µM [6] [%] | inhibition at 10 µM [8] [%] | EC50 [9] [µM] | inhibition at 10 µM [7] [%] | inhibition at 10 µM [9] [%]
0.036 | 0.2 | > 10 | 0.668 | 0.26 | > 10 | 5.21 | > 10 | C[C@H]1CCCN1CC(=O)Nc1cc2nc(-c3cnn(C)c3)ccc2cn1 [Compound 47, (S)—N-(2-(1-methyl-1H-pyrazol-4-yl)-1,6-naphthyridin-7-yl)-2-(2-methylpyrrolidin-1-yl)acetamide] | 35.2 | 0 | 7.2 | – | –
0.071 | 0.541 | – | 0.263 | 1.13 | > 10 | > 10 | > 10 | CN1CCCN(CC(=O)Nc2cc3nc(-c4cnn(C)c4)ccc3cn2)CC1 [Compound 105, 2-(4-Methyl-1,4-diazepan-1-yl)-N-(2-(1-methyl-1H-pyrazol-4-yl)-1,6-naphthyridin-7-yl)acetamide] | 38.9 | 2.6 | > 10 | 45.4 | 16.9
0.036 | > 10 | > 10 | 0.046 | – | 4.05 | 9.16 | > 10 | CN1CCN(c2cc(C(=O)Nc3cc4cc(-c5cnn(C)c5)cnc4cn3)ccn2)CC1 [Compound 2867, N-(3-(1-methyl-1H-pyrazol-4-yl)-1,7-naphthyridin-6-yl)-2-(4-methylpiperazin-1-yl)isonicotinamide] | – | 5.2 | 5.38 | – | –
0.096 | > 10 | > 10 | 2 | – | > 10 | > 10 | > 10 | CN1CCN(c2cc(C(=O)Nc3cc4cc(-c5cn(C)nn5)cnc4cn3)ccn2)CC1 [Compound 3098, N-(3-(1-Methyl-1H-1,2,3-triazol-4-yl)-1,7-naphthyridin-6-yl)-2-(4-methylpiperazin-1-yl)isonicotinamide] | 14.4 | 4.7 | > 10 | 14.9 | 8.3
0.012 | > 10 | – | 0.042 | 1 | 1.55 | 1.95 | > 10 | CC(C)n1cc(C(=O)Nc2cc3nc(-c4cncc(NC5CCN(C)CC5)n4)ccc3cn2)cn1 [Compound 4565, 1-Isopropyl-N-(2-(6-((1-methylpiperidin-4-yl)amino)pyrazin-2-yl)-1,6-naphthyridin-7-yl)-1H-pyrazole-4-carboxamide] | – | 10.2 | > 10 | – | 31
0.008 | > 10 | – | 0.238 | – | 2.22 | 0.57 | > 10 | CN1CCC(Nc2cc(C(=O)Nc3ncc4ccc(-c5cnn(C)c5)cc4n3)ccn2)CC1 [Compound 4569, N-(7-(1-Methyl-1H-pyrazol-4-yl)quinazolin-2-yl)-2-((1-methylpiperidin-4-yl)amino)isonicotinamide] | – | 42.3 | 4.09 | – | –
